Laboratory results taken from patent publication US8598120B2 (Amylin Pharmaceuticals, LLC, priority 2004, dated 2013).
* marks the point of attachment. Pentanoyl(4-Me) = CC(C)CCC(=O)*; For = O=C*

Assay: Food intake assay in overnight fasted mice
Assay type: in vivo
Conditions: 25 nmol/kg intraperitoneal
Description: Female NIH/Swiss mice (8-14 weeks old) were group housed with a 12:12 hour light:dark cycle. Water and a standard pelleted mouse chow diet are available ad libitum, except as noted. Animals are fasted starting at approximately 1500 hrs, 1 day prior to experiment.
The effects of treatment on food intake are expressed as % change relative to control.

Row | Substance | cumulative food intake compared to vehicle, 30 min | cumulative food intake compared to vehicle, 60 min | cumulative food intake compared to vehicle, 120 min | cumulative food intake compared to vehicle, 180 min
1 | KCNTATCVLGRLSQELHKLQTYPRTNTGSNTY [Compound 24] | −40% | −34% | −35% | −35%
2 | TCDTATCVLGRLSQELHRLQTYPRTNTGSNTY [Compound 114] | −17% | −20% | −25% | –
3 | KCNTATCVLGRLAAFLHRLQTYPRTNTGSNTY [Compound 96] | −49% | −38% | −19% | −23%
4 | DSNLSTKVLGRLSQELHRLQTYPRTNTGSNTY [Compound 68] | −10% | −13% | −21% | –
5 | CSALSTCVLGRLSQELHRLQTYPRTNTGSNTY [Compound 26] | −29% | −36% | −47% | –
6 | ACDTATCVLGRLSQELHRLQTYPRTNTGSNTY [Compound 92] | −31% | −29% | −30% | −27%
7 | KCNTATCVLGRLNEYLHRLQTYPRTNTGSNTY [Compound 101] | −52% | −48% | −35% | –
8 | Ac-ACNTATCVLGRLSQELHK(PEG5000)LQTYPRTNTGSNTY [Compound 47] | −5% | −13% | −27% | –
9 | isocaproyl-STAVLGRLSQELHRLQTYPRTNTGSNTY ({Pentanoyl(4-Me)}-STAVLGRLSQELHRLQTYPRTNTGSNTY-NH2; SMILES CC(C)CCC(=O)N[C@@H](CO)C(=O)N[C@H](C(=O)N[C@@H](C)C(=O)N[C@H](C(=O)N[C@@H](CC(C)C)C(=O)NCC(=O)N[C@@H](CCCNC(=N)N)C(=O)N[C@@H](CC(C)C)C(=O)N[C@@H](CO)C(=O)N[C@@H](CCC(N)=O)C(=O)N[C@@H](CCC(=O)O)C(=O)N[C@@H](CC(C)C)C(=O)N[C@@H](Cc1c[nH]cn1)C(=O)N[C@@H](CCCNC(=N)N)C(=O)N[C@@H](CC(C)C)C(=O)N[C@@H](CCC(N)=O)C(=O)N[C@H](C(=O)N[C@@H](Cc1ccc(O)cc1)C(=O)N1CCC[C@H]1C(=O)N[C@@H](CCCNC(=N)N)C(=O)N[C@H](C(=O)N[C@@H](CC(N)=O)C(=O)N[C@H](C(=O)NCC(=O)N[C@@H](CO)C(=O)N[C@@H](CC(N)=O)C(=O)N[C@H](C(=O)N[C@@H](Cc1ccc(O)cc1)C(N)=O)[C@@H](C)O)[C@@H](C)O)[C@@H](C)O)[C@@H](C)O)C(C)C)[C@@H](C)O) [Compound 20] | −9% | −21% | −30% | −31%
10 | KDNTATKVLGRLSQELHRLQTYPRTNTGSNTY [Compound 69] | −29% | −31% | −45% | –
11 | CSNLSACVLGRLSQELHRLQTYPRTNTGSNTY [Compound 23] | 8% | 0% | −19% | −12%
12 | KCNTAACVLGRLSQELHRLQTYPRTNTGSNTY [Compound 18] | −2% | −7% | −16% | −21%
13 | KCNTATCATQRLSQELHRLQTYPRTNTGSNTY [Compound 51] | −44% | −39% | −35% | –
14 | KCNTAVCVLGRLSQELHRLQTYPRTNTGSNTY [Compound 37] | −3% | −2% | −16% | –
15 | KCNTATCMLGRYTQDFHRLQTYPRTNTGSNTY [Compound 66] | −13% | −15% | −28% | –
16 | KCNTATCVLGRLSQELHRLQTYPTNVGSEAF [Compound 85] | 3% | −16% | −16% | –
17 | KCNTATCVLGRLAEFLHRLQTYPRTNTGSNTY [Compound 104] | −69% | −67% | −54% | –
18 | KCNTATCVLG(homoK)LSQELH(homoK)LQTYPRTNTGSNTY [Compound 63] | −19% | −22% | −28% | –
19 | KCDTATCVLGRLSQELHRLQTYPRTNTGSNTY [Compound 111] | −39% | −37% | −32% | –
20 | Isocaproyl-STAVLG[K(For)]LSQELH[K(For)]LQTYPRTNTGSGTP ({Pentanoyl(4-Me)}-STAVLGK(For)LSQELHK(For)LQTYPRTNTGSGTP-NH2; SMILES CC(C)CCC(=O)N[C@@H](CO)C(=O)N[C@H](C(=O)N[C@@H](C)C(=O)N[C@H](C(=O)N[C@@H](CC(C)C)C(=O)NCC(=O)N[C@@H](CCCCNC=O)C(=O)N[C@@H](CC(C)C)C(=O)N[C@@H](CO)C(=O)N[C@@H](CCC(N)=O)C(=O)N[C@@H](CCC(=O)O)C(=O)N[C@@H](CC(C)C)C(=O)N[C@@H](Cc1c[nH]cn1)C(=O)N[C@@H](CCCCNC=O)C(=O)N[C@@H](CC(C)C)C(=O)N[C@@H](CCC(N)=O)C(=O)N[C@H](C(=O)N[C@@H](Cc1ccc(O)cc1)C(=O)N1CCC[C@H]1C(=O)N[C@@H](CCCNC(=N)N)C(=O)N[C@H](C(=O)N[C@@H](CC(N)=O)C(=O)N[C@H](C(=O)NCC(=O)N[C@@H](CO)C(=O)NCC(=O)N[C@H](C(=O)N1CCC[C@H]1C(N)=O)[C@@H](C)O)[C@@H](C)O)[C@@H](C)O)[C@@H](C)O)C(C)C)[C@@H](C)O) [Compound 30] | −1% | −2% | −19% | –
21 | KCDTATCVTHRLAGLLSRSQTYPRTNTGSNTY [Compound 94] | −62% | −42% | −36% | −31%
22 | KCNTATCVLG(homoR)LSQELH(homoR)LQTYPRTNTGSNTY [Compound 74] | −42% | −32% | −31% | –
23 | CANLSTCVLGRLSQELHRLQTYPRTNTGSNTY [Compound 19] | −25% | −25% | −35% | −31%
24 | KCNTATCVLGRLADFLHRFHTFPRTNTGSNTY [Compound 108] | −70% | −66% | −38% | –
25 | KCNTATCVLGRLSQELHRLQTVPRTNTGSNTY [Compound 100] | −60% | −52% | −41% | –
26 | KCNTATCVLGRLADALHRLQTYPRTNTGSNTY [Compound 95] | −81% | −69% | −34% | −31%
27 | CSNLATCVLGRLSQELHRLQTYPRTNTGSNTY [Compound 22] | −11% | −20% | −31% | −30%
28 | KCNTATCVLGRLADFLHRLQTYPRTNTGSNTY [Compound 88] | −64% | −61% | −39% | −22%
29 | SCNTATCVLGRLADFLHRLQTYPRTNTGSNTY [Compound 97] | −78% | −76% | −60% | −40%
30 | KCNTSTCATQRLANELVRLQTYPRTNVGSEAF [Compound 84] | −53% | −40% | −20% | –
